Test results from PubChem BioAssay (NCI).
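Briefly, cells in 96-well plates were exposed to five compound concentrations for 48 h, and endpoints were estimated by linear interpolation. At the TGI there is no net growth.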

Tests used:
Assay in all cases: inhibition of tumour cell growth, NCI panel, 48 h
786-0 renal = tested on: 786-0 renal
A498 renal = tested on: A498 renal
A549 NSCLC = tested on: A549 NSCLC
ACHN renal = tested on: ACHN renal
BT-549 breast = tested on: BT-549 breast
CCRF-CEM leukemia = tested on: CCRF-CEM leukemia
DU-145 prostate = tested on: DU-145 prostate
EKVX NSCLC = tested on: EKVX NSCLC
HCC-2998 colon = tested on: HCC-2998 colon
HCT-116 colon = tested on: HCT-116 colon
HCT-15 colon = tested on: HCT-15 colon
HL-60(TB) leukemia = tested on: HL-60(TB) leukemia
HOP-62 NSCLC = tested on: HOP-62 NSCLC
HOP-92 NSCLC = tested on: HOP-92 NSCLC
HT29 colon = tested on: HT29 colon
IGROV1 ovarian = tested on: IGROV1 ovarian
K-562 leukemia = tested on: K-562 leukemia
M14 melanoma = tested on: M14 melanoma
MALME-3M melanoma = tested on: MALME-3M melanoma
MCF7 breast = tested on: MCF7 breast
MDA-MB-231 breast = tested on: MDA-MB-231 breast
MDA-MB-435 = tested on: MDA-MB-435
MDA-N = tested on: MDA-N
MOLT-4 leukemia = tested on: MOLT-4 leukemia
NCI-H226 lung = tested on: NCI-H226 lung
NCI-H23 lung = tested on: NCI-H23 lung
NCI-H460 lung = tested on: NCI-H460 lung
NCI/ADR-RES ovarian = tested on: NCI/ADR-RES ovarian
OVCAR-3 ovarian = tested on: OVCAR-3 ovarian
OVCAR-4 ovarian = tested on: OVCAR-4 ovarian
OVCAR-5 ovarian = tested on: OVCAR-5 ovarian
OVCAR-8 ovarian = tested on: OVCAR-8 ovarian
PC-3 prostate = tested on: PC-3 prostate
RPMI-8226 leukemia = tested on: RPMI-8226 leukemia
SF-268 CNS = tested on: SF-268 CNS
SK-MEL-28 melanoma = tested on: SK-MEL-28 melanoma
SK-MEL-5 melanoma = tested on: SK-MEL-5 melanoma
SK-OV-3 ovarian = tested on: SK-OV-3 ovarian
SN12C renal = tested on: SN12C renal
SNB-19 CNS = tested on: SNB-19 CNS
SNB-75 CNS = tested on: SNB-75 CNS
SR leukemia = tested on: SR leukemia
SW-620 colon = tested on: SW-620 colon
T-47D breast = tested on: T-47D breast
TK-10 renal = tested on: TK-10 renal
U251 CNS = tested on: U251 CNS
UACC-257 melanoma = tested on: UACC-257 melanoma
UACC-62 melanoma = tested on: UACC-62 melanoma
UO-31 renal = tested on: UO-31 renal
CAKI-1 renal = tested on: CAKI-1 renal
COLO 205 colon = tested on: COLO 205 colon
KM12 colon = tested on: KM12 colon
LOX IMVI melanoma = tested on: LOX IMVI melanoma
NCI-H522 lung = tested on: NCI-H522 lung
RXF 393 renal = tested on: RXF 393 renal
SF-295 CNS = tested on: SF-295 CNS
SK-MEL-2 melanoma = tested on: SK-MEL-2 melanoma

CCCCC(O)(c1ccccc1)C(O)(c1ccccc1)c1c(F)c(F)c(F)c(F)c1F (stereo unspecified)
TGI (786-0 renal): 39.4 µM | TGI (A498 renal): 49.4 µM | TGI (A549 NSCLC): > 100 µM | TGI (ACHN renal): 72.6 µM | TGI (BT-549 breast): > 100 µM | TGI (CCRF-CEM leukemia): 88.7 µM | TGI (DU-145 prostate): > 100 µM | TGI (EKVX NSCLC): 59.6 µM | TGI (HCC-2998 colon): 31 µM | TGI (HCT-116 colon): 65 µM | TGI (HCT-15 colon): 30.1 µM | TGI (HL-60(TB) leukemia): 61.9 µM | TGI (HOP-62 NSCLC): 49.5 µM | TGI (HOP-92 NSCLC): 44.8 µM | TGI (HT29 colon): 32.3 µM | TGI (IGROV1 ovarian): > 100 µM | TGI (K-562 leukemia): 82.4 µM | TGI (M14 melanoma): > 100 µM | TGI (MALME-3M melanoma): 32.6 µM | TGI (MCF7 breast): 53.1 µM | TGI (MDA-MB-231 breast): 34.9 µM | TGI (MDA-MB-435): > 100 µM | TGI (MDA-N): 39.3 µM | TGI (MOLT-4 leukemia): 45.6 µM | TGI (NCI-H226 lung): 86 µM | TGI (NCI-H23 lung): > 100 µM | TGI (NCI-H460 lung): 54.4 µM | TGI (NCI/ADR-RES ovarian): 49.1 µM | TGI (OVCAR-3 ovarian): 32.6 µM | TGI (OVCAR-4 ovarian): > 100 µM | TGI (OVCAR-5 ovarian): 41.1 µM | TGI (OVCAR-8 ovarian): 55.5 µM | TGI (PC-3 prostate): 46.8 µM | TGI (RPMI-8226 leukemia): 45.6 µM | TGI (SF-268 CNS): 53.1 µM | TGI (SK-MEL-28 melanoma): 86.1 µM | TGI (SK-MEL-5 melanoma): 35.5 µM | TGI (SK-OV-3 ovarian): > 100 µM | TGI (SN12C renal): 31.1 µM | TGI (SNB-19 CNS): > 100 µM | TGI (SNB-75 CNS): > 100 µM | TGI (SR leukemia): 76.7 µM | TGI (SW-620 colon): 61.8 µM | TGI (T-47D breast): > 100 µM | TGI (TK-10 renal): 84.8 µM | TGI (U251 CNS): 32 µM | TGI (UACC-257 melanoma): 49.1 µM | TGI (UACC-62 melanoma): 39.2 µM | TGI (UO-31 renal): 88.4 µM

COc1ccc(C2CC(c3ccc(NS(=O)(=O)c4cc([N+](=O)[O-])ccc4C)cc3)=NN2S(=O)(=O)c2cc([N+](=O)[O-])ccc2C)cc1 (stereo unspecified)
TGI (786-0 renal): > 100 µM | TGI (A498 renal): > 100 µM | TGI (A549 NSCLC): > 100 µM | TGI (ACHN renal): > 100 µM | TGI (BT-549 breast): > 100 µM | TGI (CAKI-1 renal): > 100 µM | TGI (CCRF-CEM leukemia): > 100 µM | TGI (COLO 205 colon): > 100 µM | TGI (DU-145 prostate): > 100 µM | TGI (EKVX NSCLC): > 100 µM | TGI (HCC-2998 colon): 57.9 µM | TGI (HCT-116 colon): > 100 µM | TGI (HCT-15 colon): > 100 µM | TGI (HL-60(TB) leukemia): > 100 µM | TGI (HOP-62 NSCLC): > 100 µM | TGI (HOP-92 NSCLC): > 100 µM | TGI (HT29 colon): > 100 µM | TGI (IGROV1 ovarian): > 100 µM | TGI (K-562 leukemia): > 100 µM | TGI (KM12 colon): > 100 µM | TGI (LOX IMVI melanoma): > 100 µM | TGI (M14 melanoma): > 100 µM | TGI (MALME-3M melanoma): > 100 µM | TGI (MCF7 breast): > 100 µM | TGI (MDA-MB-231 breast): > 100 µM | TGI (MDA-MB-435): > 100 µM | TGI (MDA-N): > 100 µM | TGI (MOLT-4 leukemia): > 100 µM | TGI (NCI-H226 lung): > 100 µM | TGI (NCI-H23 lung): 78.7 µM | TGI (NCI-H460 lung): > 100 µM | TGI (NCI-H522 lung): 79.4 µM | TGI (NCI/ADR-RES ovarian): > 100 µM | TGI (OVCAR-3 ovarian): > 100 µM | TGI (OVCAR-4 ovarian): > 100 µM | TGI (OVCAR-5 ovarian): > 100 µM | TGI (OVCAR-8 ovarian): > 100 µM | TGI (PC-3 prostate): > 100 µM | TGI (RPMI-8226 leukemia): > 100 µM | TGI (RXF 393 renal): > 100 µM | TGI (SF-268 CNS): 79.9 µM | TGI (SF-295 CNS): > 100 µM | TGI (SK-MEL-2 melanoma): > 100 µM | TGI (SK-MEL-28 melanoma): > 100 µM | TGI (SK-MEL-5 melanoma): > 100 µM | TGI (SK-OV-3 ovarian): > 100 µM | TGI (SN12C renal): > 100 µM | TGI (SNB-19 CNS): > 100 µM | TGI (SNB-75 CNS): > 100 µM | TGI (SR leukemia): > 100 µM | TGI (SW-620 colon): > 100 µM | TGI (T-47D breast): > 100 µM | TGI (TK-10 renal): > 100 µM | TGI (U251 CNS): > 100 µM | TGI (UACC-257 melanoma): > 100 µM | TGI (UACC-62 melanoma): > 100 µM | TGI (UO-31 renal): > 100 µM
